Where a name gives a salt, the structure may show the parent alone.
Biological target: T1, WT KCNT1 channels (Homo sapiens, UniProt Q5JUK3)
T1 construct: YFP-6His; expressed in transfected cells; host or cells: HEK293T
T1 sequence (Q5JUK3 1-1235 isoform Q5JUK3-3): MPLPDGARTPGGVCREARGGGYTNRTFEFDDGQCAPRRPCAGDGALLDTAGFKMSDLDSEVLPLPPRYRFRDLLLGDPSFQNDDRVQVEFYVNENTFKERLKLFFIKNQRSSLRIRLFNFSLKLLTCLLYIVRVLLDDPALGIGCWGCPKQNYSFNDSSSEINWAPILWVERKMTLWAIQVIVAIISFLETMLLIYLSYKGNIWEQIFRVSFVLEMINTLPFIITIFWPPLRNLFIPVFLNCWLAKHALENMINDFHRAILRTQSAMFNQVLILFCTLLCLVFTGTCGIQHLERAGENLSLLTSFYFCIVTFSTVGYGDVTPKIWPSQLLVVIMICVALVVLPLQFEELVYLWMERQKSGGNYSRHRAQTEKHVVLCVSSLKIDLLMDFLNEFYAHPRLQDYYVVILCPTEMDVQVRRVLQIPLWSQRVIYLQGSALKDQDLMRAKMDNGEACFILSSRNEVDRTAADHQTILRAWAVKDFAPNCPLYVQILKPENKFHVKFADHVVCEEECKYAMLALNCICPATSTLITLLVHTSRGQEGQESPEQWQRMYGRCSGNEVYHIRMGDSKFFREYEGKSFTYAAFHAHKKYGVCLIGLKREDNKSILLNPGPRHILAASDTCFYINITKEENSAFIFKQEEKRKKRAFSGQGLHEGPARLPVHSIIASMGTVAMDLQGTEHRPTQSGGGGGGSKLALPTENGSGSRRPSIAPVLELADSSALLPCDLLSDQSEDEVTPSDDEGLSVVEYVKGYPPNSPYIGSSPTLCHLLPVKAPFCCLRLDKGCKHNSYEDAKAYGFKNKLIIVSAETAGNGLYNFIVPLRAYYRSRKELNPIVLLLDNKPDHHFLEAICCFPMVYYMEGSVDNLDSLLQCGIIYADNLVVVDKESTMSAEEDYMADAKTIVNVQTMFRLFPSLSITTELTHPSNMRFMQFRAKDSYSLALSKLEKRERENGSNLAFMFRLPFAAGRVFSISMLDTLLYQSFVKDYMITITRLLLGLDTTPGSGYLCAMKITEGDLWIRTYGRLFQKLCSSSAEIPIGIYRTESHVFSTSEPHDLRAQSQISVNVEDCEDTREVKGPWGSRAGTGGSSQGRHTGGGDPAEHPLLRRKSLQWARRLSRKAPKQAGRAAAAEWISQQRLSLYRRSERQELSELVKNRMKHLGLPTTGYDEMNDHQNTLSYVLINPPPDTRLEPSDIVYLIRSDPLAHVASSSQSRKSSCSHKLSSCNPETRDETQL
Experiment: Inside-out patch clamp of HEK293T cells expressing WT KCNT1 channels
Type: cell-based
Conditions: inside-out patches; for IC50: WT, mean ± SEM; for inhibition at 0.05 µM: HEK-293T, 50 nM, read-out: inhibition of WT human KCNT1 channel activity
Method: The CHO cells were cultured in Dulbecco's modified Eagle's Medium (ThermoFisher, UK) supplemented with 10% (v/v) fetal bovine serum, 50 U/ml penicillin and 0.05 mg/ml streptomycin, and incubated at 37°C in 5% CO2 atmosphere. For whole cell recording of WT/Y796H KCNT1, CHO cells were transiently co‐transfected with concatemeric WT/Y796H and EYFP, as described previously.[29] For electrophysiological experiments, cells were plated onto borosilicate glass cover slips and used 2 to 4 days later. Human embryonic kidney 293T cells (HEK293T) were cultured in the same manner, but with medium supplemented with 2 mM L‐glutamine, and 1% (v/v) nonessential amino acids. For excised inside‐out recording of homomeric WT or mutant YFP‐tagged KCNT1, HEK293T cells plated on glass cover slips were transfected using Attractene Transfection Reagent (Qiagen, Germany) according to the manufacturer's instructions and used 2 to 3 days later.
Inside‐out patch clamp recordings were made at room temperature (23°C) from transiently transfected HEK293T cells, as described previously.[11] The pipette solution contained, in mM, 140 NaCl, 4 KCl, 2 CaCl2, 2 MgCl2, and 10 HEPES adjusted to pH 7.4 with NaOH. After achieving the inside‐out configuration, the intracellular face of the membrane was constantly perfused with a solution containing, in mM, 35 NaCl, 110 KCl, 0.2 EGTA, and 10 HEPES adjusted to pH 7.3 with KOH. Drug stock solutions of 5 to 20 mM in DMSO were first diluted in ethanol (1:10) and then in electrophysiological solution. KCNT1 currents were recorded using 2 voltage protocols, depending on the number of active channels in the patch before drug application. Macroscopic currents (number of active channels > 15) were recorded in response to 100 ms voltage ramps between −120 and 120 mV applied every 2 seconds from a holding potential of −78 mV. The average current amplitudes between 0 and 40 mV were used for the analyses and constructing the concentration‐response curves. With a lower number of active channels in the patch (3–15), current traces were recorded in response to 15‐second voltage steps to −20, 0, and 20 mV from a holding potential of −78 mV. Currents recorded at each voltage and each drug concentration were averaged over the duration of the trace and normalized to the average amplitudes of the corresponding current traces in drug‐free solution. The normalized data for all 3 voltage steps were then averaged for each drug concentration and used to build the concentration‐response curves (see Supplementary Fig S3). To determine the IC50, data were fitted with the Hill equation, as described previously.[11] Single channel data were analyzed using Ana software developed by Dr Michael Pusch (Istituto di Biofisica, Genova, Italy; http://users.ge.ibf.cnr.it/pusch/programs-mik.htm). In patch clamp data “n” represents number of cells, and all experiments were repeated using cells from a minimum of 2 separate transfections.

## CC(C)c1c(C(=O)Nc2ccccc2)c(-c2ccccc2)c(-c2ccc(F)cc2)n1CC[C@@H](O)C[C@@H](O)CC(=O)O [atorvastatin]
  inhibition of KCNT1 activity at 10 μM (in words): not fully inhibiting
  IC50: 1900 ± 600 nM

## O=C(OCCN1CCN(c2cccc(C(F)(F)F)c2)CC1)c1ccccc1Nc1ccnc2cc(C(F)(F)F)ccc12 [antrafenine]
  inhibition at 0.05 µM: > 60%
  IC50: 12.6 ± 3.6 nM

## CNC(=O)c1cc(Oc2ccc(NC(=O)Nc3ccc(Cl)c(C(F)(F)F)c3)c(F)c2)ccn1 [regorafenib]
  inhibition of KCNT1 activity at 10 μM (in words): not fully inhibiting

## Cc1c(O)cccc1C(=O)N[C@@H](CSc1ccccc1)[C@H](O)CN1C[C@H]2CCCC[C@H]2C[C@H]1C(=O)NC(C)(C)C [nelfinavir mesylate]
  inhibition at 0.05 µM: > 60%
  IC50: 14.3 ± 2.6 nM
